Read-outs that look alike come from different tables or passages of the source.
Experiments:
[1] = tested on: green peach aphids (Myzus persicae); experiment: Myzus persicae oral test; format: in vivo; details: for pest or weed control at 20 ppm: Myzus persicae, 120 h, read-out: efficacy in %
Procedure: Solvent: 100 parts by weight of acetone
Subsequently, the plates are sealed with parafilm, which a mixed population of green peach aphids (Myzus persicae) within a second microtitre plate is able to puncture and imbibe the solution through it.
After 5 days, the efficacy in % is determined. 100% means that all the aphids have been killed; 0% means that no aphids have been killed.

[2] = tested on: green peach aphid (Myzus persicae); experiment: Myzus persicae spray test (Chinese cabbage leaf discs); format: in vivo; details: for pest or weed control at 500 g/ha: Myzus persicae, foliar, read-out: efficacy in %
Procedure: Myzus persicae—Spray Test
To produce a suitable active ingredient formulation, 1 part by weight of active ingredient is dissolved with the stated parts by weight of solvent and made up with water containing an emulsifier concentration of 1000 ppm until the desired concentration is attained. To produce further test concentrations, the formulation is diluted with emulsifier-containing water.
After 5-6 days, the efficacy in % is determined. 100% means that all the aphids have been killed; 0% means that no aphids have been killed.

[3] = log P by HPLC on reversed-phase column (C18), EEC directive 79/831 Annex V.A8; format: physicochemical
[4] = application rate 20 ppm, after 5 days, oral, 100% = all aphids killed
[5] = application rate 500 g/ha, after 5-6 days, Chinese cabbage leaf discs, 100% = all aphids killed
[6] = reversed-phase HPLC column (C18), neutral range, pH 7.8, HPLC C18, 43° C., preparation examples, read-out: log P[n]
[7] = neutral range, pH 7.8, HPLC C18, 43° C., preparation examples, read-out: log P[n]

Structure (SMILES)	efficacy in % [1, 4] [%]	efficacy in % [2, 5] [%]	logP [n] ([3]; pH 7.8)	further results
CO/N=C/c1ncc(C(=O)N(C)c2cccnc2)n1C [I-1-001]	100	90	1.1	–
CN(C(=O)c1cnc(C2OCCO2)n1C)c1cccnc1 [I-1-002]	100	90	0.73	–
CCN(C(=O)c1cnc(C2OCCO2)n1C)c1cccnc1 [I-1-003]	100	90	0.98	–
CCO/N=C/c1ncc(C(=O)N(C)c2cccnc2)n1C [I-1-004]	100	90	1.41	–
CC(C)O/N=C/c1ncc(C(=O)N(C)c2cccnc2)n1C [I-1-005]	100	100	1.7	–
CN(C(=O)c1cnc(C=O)n1C)c1cccnc1 [I-1-007, 2-Formyl-N,1-dimethyl-N-(pyridin-3-yl)-1H-imidazole-5-carboxamide]	–	–	–	pest or weed control at 20 ppm ([1]; po): 100%; pest or weed control at 500 g/ha [2]: 100%; chromatographic logP [3, 6]: 0.59
COCC1COC(c2ncc(C(=O)N(C)c3cccnc3)n2C)O1 (centres unmarked) [I-1-009]	100	90	0.95	–
CCC1COC(c2ncc(C(=O)N(C)c3cccnc3)n2C)O1 (centres unmarked) [I-1-011]	100	90	1.3	–
C=CCO/N=C/c1ncc(C(=O)N(C)c2cccnc2)n1C [I-1-012]	100	90	1.55	–
CN(C(=O)c1cnc(/C=N/OCc2ccccn2)n1C)c1cccnc1 [I-1-013]	100	100	1.26	–
CC1COC(c2ncc(C(=O)N(C)c3cccnc3)n2C)O1 (centres unmarked) [I-1-014]	100	100	1.02	–
CN(C(=O)c1cnc(C2OCC3(CC3)CO2)n1C)c1cccnc1 [I-1-015]	100	90	1.29	–
CN(C(=O)c1cnc(C2COC(C)(C)OC2)n1C)c1cccnc1 [I-1-016, 2-(2,2-Dimethyl-1,3-dioxan-5-yl)-N,1-dimethyl-N-(pyridin-3-yl)-1H-imidazole-5-carboxamide]	100	100	1.48	log P[n] ([3]; pH 7.8): 1.48
CCOC(=O)N/N=C/c1ncc(C(=O)N(C)c2cccnc2)n1C [I-1-017]	100	100	1.06	–
COC(=O)N(C)/N=C/c1ncc(C(=O)N(C)c2cccnc2)n1C [I-1-018, Methyl (2E)-1-methyl-2-({1-methyl-5-[methyl(pyridin-3-yl)carbamoyl]-1H-imidazol-2-yl}methylene)hydrazinecarboxylate]	–	–	–	pest or weed control at 20 ppm [1, 4]: 100%; pest or weed control at 500 g/ha [2, 5]: 100%; chromatographic logP [3, 7]: 1.08
CCOC(=O)N(C)/N=C/c1ncc(C(=O)N(C)c2cccnc2)n1C [I-1-019]	100	90	1.33	–
CC1OC(c2ncc(C(=O)N(C)c3cccnc3)n2C)OC1C (centres unmarked) [I-1-020]	100	100	1.23	–
CN(C(=O)c1cnc(C2OCCS2)n1C)c1cccnc1 (centres unmarked) [I-1-021]	100	100	0.97	–
CN(C(=O)c1cnc(C2OCCCS2)n1C)c1cccnc1 (centres unmarked) [I-1-022]	100	100	1.13	–
CCCO/N=C/c1ncc(C(=O)N(C)c2cccnc2)n1C [I-1-023]	100	100	1.74	–
COC(=O)c1ncc(C(=O)N(C)c2cccnc2)n1C [I-1-026, Methyl 1-methyl-5-[methyl(pyridin-3-yl)carbamoyl]-1H-imidazol-2-carboxylate]	–	–	–	pest or weed control at 20 ppm [1, 4]: 100%; pest or weed control at 500 g/ha [2, 5]: 90%; chromatographic logP ([3]; acidic range, pH 2.7, HPLC C18, 43° C., preparation examples, read-out: log P[a]): 0.53; chromatographic logP [3, 7]: 0.84; chromatographic logP ([3]; reversed-phase HPLC column (C18), neutral range, pH 7.8, HPLC C18, 43° C., Table 1, read-out: logP [n]): 0.42
CCCCO/N=C/c1ncc(C(=O)N(C)c2cccnc2)n1C [I-1-027]	100	100	2.08	–
CN(C(=O)c1cnc(/C=N/NC(=O)OCc2ccccc2)n1C)c1cccnc1 [I-1-028]	100	90	1.63	–
CCCCN(/N=C/c1ncc(C(=O)N(C)c2cccnc2)n1C)C(=O)OCC [I-1-029]	100	90	2.06	–
CN(C(=O)c1cnc(C(=O)NC(C)(C)C)n1C)c1cccnc1 [I-1-030]	100	90	1.62	–

Structure (SMILES)	efficacy in % [1, 4] [%]	efficacy in % [2, 5] [%]	logP [n] ([3]; pH 7.8)	further results
CC(C)NC(=O)c1ncc(C(=O)N(C)c2cccnc2)n1C [I-1-032]	100	100	1.26	–
CC(C)CO/N=C/c1ncc(C(=O)N(C)c2cccnc2)n1C [I-1-034]	100	90	2.07	–
C#CCO/N=C/c1ncc(C(=O)N(C)c2cccnc2)n1C [I-1-035]	100	100	1.83	–
CN(C(=O)c1cnc(/C=N/OCC(C)(C)C)n1C)c1cccnc1 [I-1-036]	100	100	2.22	–
CN(/N=C/c1ncc(C(=O)N(C)c2cccnc2)n1C)C(=O)OC(C)(C)C [I-1-038]	100	90	1.82	–
CCN(C(=O)c1cnc(C2OCC(C)(C)CO2)n1C)c1cccnc1 [I-1-040]	100	90	1.61	–
CCN(C(=O)c1cnc(/C=N/OC(C)C)n1C)c1cccnc1 [I-1-041]	100	90	1.81	–
CCN(C(=O)c1cnc(/C=N/OCC2CC2)n1C)c1cccnc1 [I-1-042]	100	100	1.86	–
CCCO/N=C/c1ncc(C(=O)N(CC)c2cccnc2)n1C [I-1-043]	100	90	1.85	–
CCNC(=O)c1ncc(C(=O)N(C)c2cccnc2)n1C [I-1-046, N^2-Ethyl-N^5,1-dimethyl-N^5-(pyridin-3-yl)-1H-imidazole-2,5-dicarboxamide]	–	–	–	pest or weed control at 20 ppm [1, 4]: 100%; pest or weed control at 500 g/ha [2, 5]: 100%; chromatographic logP ([3]; reversed-phase HPLC column (C18), acidic range, pH 2.7, HPLC C18, 43° C., preparation examples, read-out: log P[a]): 0.8; chromatographic logP [3, 6]: 0.97
CN(C(=O)c1cnc(C(=O)NCC(F)(F)F)n1C)c1cccnc1 [I-1-048]	100	100	1.42	–
COCCOC(=O)N/N=C/c1ncc(C(=O)N(C)c2cccnc2)n1C [I-1-049]	100	90	1.26	–
CCO/N=C/c1ncc(C(=O)N(CC)c2cccnc2)n1C [I-1-051]	100	100	1.66	–
CN(C(=O)c1cnc(/C=N/OC2CCCC2)n1C)c1cccnc1 [I-1-052]	100	100	2.14	–
CCN(C)C(=O)c1ncc(C(=O)N(C)c2cccnc2)n1C [I-1-053]	100	90	0.87	–
CNC(=O)c1ncc(C(=O)N(C)c2cccnc2)n1C [I-1-061]	100	–	0.7	–
CN(C(=O)c1cnc(C(=O)NCC2CC2)n1C)c1cccnc1 [I-1-063]	100	–	1.39	–
COC(=O)CNC(=O)c1ncc(C(=O)N(C)c2cccnc2)n1C [I-1-077]	90	–	0.93	–
CCONC(=O)c1ncc(C(=O)N(C)c2cccnc2)n1C [I-1-078]	–	90	0.67	–
CC(C)C(=O)c1ncc(C(=O)N(C)c2cccnc2)n1C [I-1-082, 2-Isobutyryl-N,1-dimethyl-N-(pyridin-3-yl)-1H-imidazole-5-carboxamide]	–	–	–	pest or weed control at 500 g/ha [2, 5]: 100%; chromatographic logP [3, 6]: 1.55
CCC(=O)c1ncc(C(=O)N(C)c2cccnc2)n1C [I-1-086]	–	90	1.23	–
CCN(C)C(=O)c1ncc(C(=O)N(c2cccnc2)C2CC2)n1C [I-1-087]	–	–	1.11	–
CN(C(=O)c1cnc(C(=O)NS(=O)(=O)C2CC2)n1C)c1cccnc1 [I-1-088]	–	–	0.72	–
CN(C(=O)c1cnc(C(=O)NCCO)n1C)c1cccnc1 [I-1-089]	–	–	0.45	–
CN(C(=O)c1cncn1C)c1cccnc1 [N,1-Dimethyl-N-(pyridin-3-yl)-1H-imidazole-5-carboxamide]	–	–	–	chromatographic logP [3, 6]: 0.44
